Assay results published in US20250346643A1, “TROPOMYOSIN KINASE RECEPTOR (TRK) LIGANDS AS THERAPEUTICS TO SUPPORT LIVER REGENERATION” (Vanderbilt University, priority 2024, published 2025).
Read-outs that look alike come from different tables or passages of the source.

System: liver regeneration after partial hepatectomy
Type: in vivo, mouse
Protocol: Partial hepatectomy. All surgeries were performed per the National Institutes of Health recommendations contained in the Guide for the Care and Use of Laboratory. Mice were anesthetized with isoflurane and received preoperative extended-release buprenorphine subcutaneous (s.c.) for analgesia and eye ointment for protection. […] The evisceration of the median and left lateral lobes allowed suture ligation and ˜70% hepatectomy. Skin and abdominal muscles were closed in a two-step procedure. Mice were euthanized 1 h, 24 h, 2 days, 3 days, and 4 days after partial hepatectomy, and tissues were collected for processing. To test if recombinant NTF3 promotes liver regeneration, mice were injected intravenous (i.v.) with recombinant NTF3 (STEMCELL Technologies, Vancouver, Canada; catalog no. 78074, lot nos. 1000070683 and 1000077434) diluted in sterile 0.9% saline (0.9% NaCl) or vehicle only at approximately 1 hour prior to partial hepatectomy. Mice were then injected i.v. once per day with recombinant NTF3 or vehicle at 20 ng/g body weight until sacrifice. Lyophilized NTF3 was solubilized in 0.1% BSA/PBS (Sigma-Aldrich, St. Louis, MO; A3059) and stored at −80° C. until use.
Serum chemistry. Whole blood was collected in blood collection tubes supplemented with lithium heparin (BD vacutainer, Franklin Lakes, NJ; Cat.366664). Blood was centrifuged at 4000 g for 15 min and the plasma collected and stored at −80° C. until analysis. Plasma was analyzed on a VetScan® vs2 (Abaxis, Union City, CA) using mammalian liver profile analysis discs (Abaxis, Union City, CA; 500-0040) according to the manufacturer's instructions.
Immunohistochemistry. For immunohistochemistry, formalin-fixed paraffin-embedded (FFPE) sections were cut at a 4-μm thickness, and slides were incubated at 65° C. for 30 min. Slides were deparaffinized in Histo-Clear® (National Diagnostics, Charlotte, NC; HS2001GLL) and rehydrated by an ethanol gradient. Heat antigen retrieval was performed in 10 mM sodium citrate (pH 6.0) in a pressure cooker (Cuisinart®, CPC-600C), for 20 min at high pressure, natural pressure release for 30 min, and cooled at room temperature for 30 min. Endogenous peroxidase quenching was performed with 1.5% hydrogen peroxide (Sigma-Aldrich, St. Louis, MO; H1009) for 20 min, and slides were washed twice in PBS. Blocking was performed for 30 min with Protein Block, Serum-free (Agilent, Santa Clara, CA; X090930-2). The primary antibody was diluted in antibody diluent (Agilent, Santa Clara, CA; S080983-2) and applied to the slides in a wet chamber overnight at 4° C. After two washes in PBS, slides were incubated with the appropriate secondary antibody for 30 min, followed by two washes in PBS. […] The same reveal time was then used on all experimental slides. Slides were stained with hematoxylin (Sigma-Aldrich, St. Louis, MO; GHS332) for 30 s, washed gently in lukewarm tap water for 5 min, and washed twice in distilled water, followed by two washes in PBS (pH 7.4). Slides were washed in increasing ethanol/water gradients, followed by three washes in Histo-Clear®. Whole-slide scans for subsequent analyses and publishing were obtained using an SCN400 slide scanner (Leica, Wetzlar, Germany). Whole-slide images were processed and annotated in QuPath 0.5.1.

[1] = 2 days after partial hepatectomy, NTF3 20 ng/g i.v. once per day
[2] = 4 days after partial hepatectomy, NTF3 20 ng/g i.v. once per day

NTF3: neurotrophin-3, recombinant protein; HSC-derived hepatocyte mitogen, ligand of TRKA, TRKB, TRKC
liver to body weight ratio vs vehicle [1]: similar
number of Ki67+ hepatocytes vs vehicle [1]: significantly increased
number of Ki67+ hepatocytes vs vehicle (4 days after partial hepatectomy): increased number
liver to body weight ratio vs controls [2]: significantly increased
relative increase of liver to body weight ratio compared to controls [2]: 10-23%
adverse effects (mouse, in vivo): no adverse effects
serum ALP vs vehicle (mouse, in vivo): similar
serum ALT vs vehicle (mouse, in vivo): similar
serum albumin vs vehicle (mouse, in vivo): similar
